US11324752B2, “Imeglimin for preventing and/or treating hepatocellular carcinoma” (ERICARE, priority 2017, dated 2022)
“Also recorded” adds a separate entry of the source. Structures can show the parent of a compound that is named as a salt.

How the values were obtained:
HepG2 line = details: for growth in volume of grafted tumors compared to placebo control group: FIG. 1
Experimental: In vivo anti-tumor activity of imeglimin compared to that of metformin, alone or in combination with sorafenib, on subcutaneous xenograft models of the CHC HepG2 line in 6 week old female mice with a BALB/c nude genetic background (Harlan).
Two million cells of the HepG2 line are injected into the left side of each mouse in a volume of 100 μl (50 μl PBS-50 μl matrigel). Mice developing a palpable tumor are randomized into 7 groups of
treatment of 14 mice according to the following design: placebo, imeglimin 75 mg/kg/day, imeglimin 150 mg/kg/day, metformin 75 mg/kg/day, sorafenib 40 mg/kg/day, imeglimin 75 mg/kg/day+sorafenib 40 mg/kg/day, metformin 75 mg/kg/day+sorafenib 40 mg/kg/day.
Metformin and imeglimin are administered in drinking water, sorafenib is administered by oral gavage. Treatment begins on the day of randomization.
The treatments were administered for 63 days. The evolution curves of the tumor volumes, as well as those of the weight of the animals, were analyzed during this period. The appearance of tumors and organs has been the subject of a macroscopic anatomic-pathological analysis.

HuH7 [1] = details: in vitro; cited from earlier work
HepG2 [2] = details: in vitro; cited from earlier work
[3] = in particular hepatocellular carcinoma; cited from earlier work
human liver tumor cells = details: immunocompromised mice; cited from earlier work
[4] = cited from earlier work
[5] = STZ diabetic rat; 35 days; 50 and 100 mg/kg/day; cited from earlier work
mitochondrial I complex = details: cited from earlier work
[6] = seven Phase 2 studies, 611 patients; cited from earlier work
[7] = seven Phase 1 studies, 216 subjects; cited from earlier work
HuH7 [8] = experiment: MTS Promega cell proliferation assay, HuH7; format: cell-based, human
Experimental: (§1) In vitro anti-proliferative effect of imeglimin compared to that of metformin in 2 models of human hepatocellular carcinoma (HCC). Determination of IC50 (median inhibitory concentration) by the MTS Promega™ cell proliferation assay (CellTiter 96™ AQueous Nonradioactive Cell Proliferation Assay Kit).
(§2) Different mM concentrations (0, 0.1, 0.25, 0.5, 1.0, 2.5, 5.0, 7.5, 10, 25, 50, 100) of imeglimin and metformin were tested in vitro on two human CHC cell lines, HepG2 and HuH7, over a period of 6 days.

HepG2 [9] = experiment: MTS Promega cell proliferation assay, HepG2; format: cell-based, human; details: period of 6 days
Experimental: as §1, §2

hepatocellular carcinoma = details: cited from earlier work
[10] = 1500 mg twice daily, similar to 850 mg of metformin twice daily

Structure (SMILES): CN(C)C(=N)N=C(N)N [metformin]
- growth in volume of grafted tumors compared to placebo control group (HepG2 line; 63 days of treatment): slow down the growth in volume of grafted tumors
- cell growth inhibitory activity (HuH7 [1]): has cell growth inhibitory activity
- cell growth inhibitory activity (HepG2 [2]): has cell growth inhibitory activity
- cancers in treated patients with type 2 diabetes versus other anti-diabetic drugs [3]: fewer cancers
- anti-cancer activity (human liver tumor cells): exhibits anti-cancer activity

Structure (SMILES): C[C@H]1N=C(N(C)C)N=C(N)N1 [imeglimin, (6R)-(+)-4-dimethylamino-2-imino-6-methyl-1,2,5,6-tetrahydro-1,3,5-triazine hydrochloride]
- fasting glucose levels [4, 10]: improves
- hemoglobin A1c [4, 10]: improves
- tolerance profile compared with metformin ([4]; diabetic patients): greater than that of metformin
- HbA1c [5]: significantly decreased
- fasting blood glucose [5]: significantly decreased
- dose effect on tumor growth (HepG2 line; 75 mg/kg/day to 150 mg/kg/day, hydrochloride): dose-dependent inhibitory effect on tumor growth; also recorded: increases with the doubling of doses
- mean weight of the animals (HepG2 line; 63 days of treatment): did not change
- toxicity of treatment (HepG2 line; 63 days of treatment): did not prove to be toxic
- growth in volume of grafted tumors compared to placebo control group (HepG2 line; 63 days of treatment): slow down the growth in volume of grafted tumors
- effect on tumor volume compared with metformin (HepG2 line; imeglimin 150 mg/kg/day vs metformin 75 mg/kg/day (equipotent doses), hydrochloride): higher than metformin; also recorded: significantly greater than that of metformin
- effect on tumor volume compared with sorafenib (HepG2 line; imeglimin 150 mg/kg/day vs sorafenib 40 mg/kg/day, hydrochloride): not significantly different from sorafenib; also recorded: does not have a significantly different effect
- inhibition of mitochondrial I complex (mitochondrial I complex): does not inhibit
- tolerance and safety of use [6]: excellent tolerance and safety of use similar to those of the placebo
- administration safety and tolerance [7]: excellent administration safety and tolerance
- effect on HuH7 line compared with HepG2 line (HuH7 [8]): much more marked
- change of inhibitory effect with time (HuH7 [8]; period of 6 days): increases with time
- change of inhibitory effect with time (HepG2 [9]): increases with time

Structure (SMILES): CNC(=O)c1cc(Oc2ccc(NC(=O)Nc3ccc(Cl)c(C(F)(F)F)c3)cc2)ccn1 [sorafenib, reference compound]
- median survival time (hepatocellular carcinoma; patients with advanced hepatocellular carcinoma): 10.7 months
- most important side effects (hepatocellular carcinoma; sorafenib group): Diarrhea, weight loss, hand-foot syndrome and hypophosphatemia
- growth in volume of grafted tumors compared to placebo control group (HepG2 line; 63 days of treatment): slow down the growth in volume of grafted tumors
- anti-angiogenic effect, observation at sacrifice (HepG2 line; sorafenib 40 mg/kg/day alone or with imeglimin 75 mg/kg/day): exerts its anti-angiogenic properties
